Data on 21 compounds can be found in patent US12428403B2, “N-(heterocyclyl and heterocyclylalkyl)-3-benzylpyridin-2-amine derivatives as SSTR4 agonists” (Takeda Pharmaceutical Company Limited, priority 2020, dated 2025).

One assay deals with SSTR1 (Homo sapiens, UniProt P30872). The experiment in a line: biochemical.
The target of assay [1] is T1, SSTR4 (Homo sapiens, UniProt P31391). In words: cell-based.
Description: This cell-based assay measures the ability of compounds to inhibit forskolin stimulated cAMP in CHO-K1 cells overexpressing SSTR4. CHO-K1 cells overexpressing SSTR4 (CHO-SSTR4) are purchased from DiscoveRx (product code 95-0059C2). The CHO-SSTR4 cells are maintained in F12K media with 10% Fetal Bovine Serum (Hyclone), 1% Pen/Strep (Life Technologies), and 800 μg/mL G418 (Life Technologies). To perform the assay, 3000 cells are plated per well in white 384-well plate (Corning 3570) in 50 complete media and the cells are allowed to attach for 16 hours in a 37° C., 5% CO2 incubator. The next day, the culture media is removed from the cells and the cells are washed (added then removed) with Krebs Ringer Buffer (ZenBio, KRB-1000 mL). Test compounds are suspended in DMSO and diluted in stimulation buffer: Krebs Ringer Buffer plus 0.5% BSA (Roche), 300 μM IBMX (Sigma), and 350 nM forskolin (Sigma). The cells are incubated in 10 μL compound/stimulation buffer for 30 minutes at room temperature. Cellular cAMP levels are detected with a HTRF LANCE Ultra cAMP kit (Perkin Elmer, catalog number TRF0264).
The assay is performed in accordance with the manufacturer's instructions. Five μL of diluted Eu-W8044 labeled streptavidin (dilution: 1:50 in cAMP Detection Buffer) is added to each well. Then 5 μL of diluted biotin cAMP (dilution: 1:150 in cAMP Detection Buffer) is added to each well. The plates are covered and allowed to incubate for 60 minutes at room temperature on a shaker. HTRF (665 nm/615 nm) is read on a Perkin Elmer ENVISION plate reader. The pEC50 values are generated using Activity Base for Screening Data Management.
Assay [2] deals with T1, SSTR4. In words: SSTR4 I-125 somatostatin competition binding assay (CHO-K1 membranes). Set-up: host or cells: CHO-K1. The settings on record: competition with I-125 labeled somatostatin, membranes from CHO-K1 overexpressing SSTR4; read-out: SSTR4 Binding pIC50 (converted). The text has this:
SSTR4I-125 Somatostatin Competition Binding Assay
Membranes from CHO-K1 cells overexpressing SSTR4 are purchased from Perkin Elmer (catalog number ES-524-M400UA). […] The scintillator sheets are melted to filters using a heat block.
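Throughout, for EC50: CHO-K1 cells overexpressing SSTR4, reduction of forskolin-driven cAMP after 30 min compound exposure at room temperature, cAMP read by HTRF LANCE Ultra kit.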

Sequence of SSTR1 (P30872 whole entry): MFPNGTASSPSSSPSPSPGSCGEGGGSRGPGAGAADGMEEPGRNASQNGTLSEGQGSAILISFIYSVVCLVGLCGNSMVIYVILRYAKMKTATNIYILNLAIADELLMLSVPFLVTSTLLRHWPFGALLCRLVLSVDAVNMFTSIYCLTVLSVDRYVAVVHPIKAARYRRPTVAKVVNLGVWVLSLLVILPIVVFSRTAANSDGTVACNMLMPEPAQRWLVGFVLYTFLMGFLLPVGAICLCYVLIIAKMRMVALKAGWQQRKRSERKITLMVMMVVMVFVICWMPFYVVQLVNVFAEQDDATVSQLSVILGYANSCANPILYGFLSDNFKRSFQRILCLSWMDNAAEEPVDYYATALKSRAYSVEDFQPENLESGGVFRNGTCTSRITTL
T1 sequence (P31391 whole entry): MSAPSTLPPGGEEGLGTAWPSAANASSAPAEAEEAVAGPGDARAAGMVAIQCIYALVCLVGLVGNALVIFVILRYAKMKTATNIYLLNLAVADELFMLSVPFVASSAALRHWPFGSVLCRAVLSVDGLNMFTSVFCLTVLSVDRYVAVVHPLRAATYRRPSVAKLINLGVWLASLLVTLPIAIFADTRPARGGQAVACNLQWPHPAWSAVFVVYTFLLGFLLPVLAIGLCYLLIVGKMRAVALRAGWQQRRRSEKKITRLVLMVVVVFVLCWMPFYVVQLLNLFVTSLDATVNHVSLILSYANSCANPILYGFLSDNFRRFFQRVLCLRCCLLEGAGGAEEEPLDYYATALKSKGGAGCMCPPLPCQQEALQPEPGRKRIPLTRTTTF
Description for SSTR1: SSTR1 I-125 Somatostatin Competition Binding Assay for Selectivity Versus SSTR1
Membranes from CHO-K1 cells overexpressing SSTR1 are purchased from Perkin Elmer (catalog number ES-520-M400UA). Test compounds are suspended in DMSO and then diluted in assay buffer (25 mM HEPES pH 7.4, 10 mM MgCl2, 1 mM CaCl2, 0.5% BSA) plus 0.4 nM I-125 labeled somatostatin (Perkin Elmer catalog number NEX389). […] Then 10 μg of SSTR1 membranes in 50 μL assay buffer are added per well. The plate is incubated for 60 minutes at room temperature. […] The contents of the assay plate are transferred to filters with a TomTech harvester and washed 5 times with 20 mM HEPES, 100 mM NaCl. […] The scintillator sheets are melted to the filters using a heat block. The filters are then read in a MicroBeta scintillation counter. Binding Ki curves are generated using Activity Base for Screening Data Management and the results are reported as pIC50.

What is called EC50 is the concentration giving half of the maximal effect. With `C[C@H](c1ccc(F)cc1)c1nc(C(=O)N[C@@H]2CCOC2)cnc1NCCN1CCCC1` [Example 13, 6-((R)-1-(4-fluorophenyl)ethyl)-5-((2-(pyrrolidin-1-yl)ethyl)amino)-N-((R)-tetrahydrofuran-3-yl)pyrazine-2-carboxamide], the IC50 is 4070 nM against SSTR1 and 162 nM at SSTR4 [2]. Besides, the response at SSTR4 [1] was half-maximal at 11.7 nM (EC50).

On to `Cc1nc(N[C@@H]2CCN(C)C[C@H]2C)c(Cc2ccc(F)cc2)nc1C(N)=O` (racemic) [Example 45, 5-((trans-1,3-dimethylpiperidin-4-yl)amino)-6-(4-fluorobenzyl)-3-methylpyrazine-2-carboxamide], for which the IC50 was 18200 nM against SSTR1 and 129 nM on SSTR4 [2]. This compound had a 50% effective concentration (EC50) on SSTR4 [1] of 38 nM.

Consider `Cc1nnc([C@@H](C)c2ccc(F)cc2)c(NCCN2CCC2)n1` (single isomer, unassigned) [Example 134], for which the results for the IC50 at SSTR1 and at SSTR4 [2] were 15100 nM and 19.5 nM, respectively. A half-maximal response on SSTR4 [1] (EC50) required 2.19 nM.

`Cc1nc(NCCN2CCCC2)c(C(C)c2ccc(F)cc2)nc1C(=O)NCCF` (stereo not drawn) [Example 51, N-(2-fluoroethyl)-6-(1-(4-fluorophenyl)ethyl)-3-methyl-5-((2-(pyrrolidin-1-yl)ethyl)amino)pyrazine-2-carboxamide]: the IC50 was 81.3 nM at SSTR1 and 18.2 nM on SSTR4 [2]. This compound also had an EC50 on SSTR4 [1] of 3.09 nM.

For `CNC(=O)c1nc(Cc2ccc(F)cc2)c(NCCN2CCCC2)nc1C` [Example 43, 6-(4-fluorobenzyl)-N,3-dimethyl-5-((2-(pyrrolidin-1-yl)ethyl)amino)pyrazine-2-carboxamide], the results for the IC50 at SSTR1 and on SSTR4 [2] were 9770 nM and 39.8 nM, respectively. The response on SSTR4 [1] was half-maximal at 12.6 nM (EC50).

On to `Cc1nc(NCCN2CCCC2)c(Cc2ccc(F)cc2)nc1C(=O)N(C)C` [Example 42, 6-(4-fluorobenzyl)-N,N,3-trimethyl-5-((2-(pyrrolidin-1-yl)ethyl)amino)pyrazine-2-carboxamide], for which the figures for the IC50 at SSTR1 and on SSTR4 [2] were 10000 nM and 138 nM, respectively. The compound also gave a 50% effective concentration (EC50) on SSTR4 [1] of 12.6 nM.

For the compound `CO[C@H]1C[C@H](NC(=O)c2nc(C(C)c3ccc(F)cc3)c(NCCN3CCCC3)nc2C)C1` (stereo partly drawn) [Example 71, 6-(1-(4-fluorophenyl)ethyl)-N-(trans-3-methoxycyclobutyl)-3-methyl-5-((2-(pyrrolidin-1-yl)ethyl)amino)pyrazine-2-carboxamide], the figures for the IC50 on SSTR1 and on SSTR4 [2] were 2450 nM and 31.6 nM, respectively. In addition, it took 4.27 nM to reach a half-maximal effect on SSTR4 [1] (EC50).

Take `CO[C@@H]1CCN(C(=O)c2nc(C(C)c3ccc(F)cc3)c(NCCN3CCCC3)nc2C)C1` (stereo partly drawn) [Example 72, (6-(1-(4-fluorophenyl)ethyl)-3-methyl-5-((2-(pyrrolidin-1-yl)ethyl)amino)pyrazin-2-yl)((R)-3-methoxypyrrolidin-1-yl)methanone]: the figures for the IC50 against SSTR1 and at SSTR4 [2] were 4790 nM and 64.6 nM, respectively. Further, the concentration giving a half-maximal response (EC50) at SSTR4 [1] is 3.39 nM.

For `C[C@H](c1ccc(F)cc1)c1nccnc1NCCN1CCCC1` (single isomer, unassigned) [Example 121], the results for the IC50 at SSTR1 and on SSTR4 [2] were 1380 nM and 39.8 nM, respectively. The response on SSTR4 [1] was half-maximal at 4.37 nM (EC50).

For the compound `C[C@H](c1ccc(F)cc1)c1nc(C(=O)NC2CCOCC2)cnc1NCCN1CCCC1` [Example 18, (R)-6-(1-(4-fluorophenyl)ethyl)-5-((2-(pyrrolidin-1-yl)ethyl)amino)-N-(tetrahydro-2H-pyran-4-yl)pyrazine-2-carboxamide], the IC50 is 8910 nM against SSTR1 and 166 nM at SSTR4 [2]. The compound further had an EC50 at SSTR4 [1] of 12 nM.

As for `Cc1nc(NCCN2CCCC2)c(C(C)c2ccc(F)cc2)nc1C(=O)N1CC[C@H](F)C1` (stereo partly drawn) [Example 66, (6-(1-(4-fluorophenyl)ethyl)-3-methyl-5-((2-(pyrrolidin-1-yl)ethyl)amino)pyrazin-2-yl)((S)-3-fluoropyrrolidin-1-yl)methanone], the IC50 on SSTR1 is 3470 nM; at SSTR4 [2] it was 36.3 nM. At SSTR4 [1], this compound showed an EC50 of 4.17 nM.

Turning to `Cc1nnc([C@@H](C)c2ccccc2)c(NCCN2CCC2)n1` (single isomer, unassigned) [Example 145], the IC50 is 14500 nM against SSTR1 and 25.1 nM on SSTR4 [2]. For the same compound, the EC50 on SSTR4 [1] is 1.74 nM.

As to `Cc1cnc(-c2nc(C(C)c3ccc(F)cc3)c(NCCN3CCCC3)nc2C)o1` (stereo not drawn) [Example 129, 3-(1-(4-fluorophenyl)ethyl)-6-methyl-5-(5-methyloxazol-2-yl)-N-(2-(pyrrolidin-1-yl)ethyl)pyrazin-2-amine], the IC50 against SSTR1 is 2290 nM; on SSTR4 [2], 35.5 nM. At SSTR4 [1], this compound had an EC50 of 10 nM.

Take `CO[C@@H]1CCN(C(=O)c2cnc(NCCN3CCCC3)c([C@H](C)c3ccc(F)cc3)n2)C1` [Example 11, (6-((R)-1-(4-fluorophenyl)ethyl)-5-((2-(pyrrolidin-1-yl)ethyl)amino)pyrazin-2-yl)((R)-3-methoxypyrrolidin-1-yl)methanone]: the IC50 against SSTR1 was 3470 nM; at SSTR4 [2], 214 nM. At SSTR4 [1], this compound gave an EC50 of 28.8 nM.

In the case of `Cc1nc(NCCN2CCCC2)c(C(C)c2ccc(F)cc2)nc1C(=O)N[C@@H]1CCOC1` (stereo partly drawn) [Example 61, 6-(1-(4-fluorophenyl)ethyl)-3-methyl-5-((2-(pyrrolidin-1-yl)ethyl)amino)-N-((R)-tetrahydrofuran-3-yl)pyrazine-2-carboxamide], the IC50 is 1510 nM at SSTR1 and 20.4 nM at SSTR4 [2]. At SSTR4 [1], this compound gave an EC50 of 15.8 nM.

Take `Cc1nnc(C(C)c2ccccc2)c(NCCN2CCC2)n1` (stereo not drawn) [Example 143, N-(2-(azetidin-1-yl)ethyl)-3-methyl-6-(1-phenylethyl)-1,2,4-triazin-5-amine]: the figures for the IC50 against SSTR1 and on SSTR4 [2] were 10000 nM and 49 nM, respectively. This compound gave an EC50 at SSTR4 [1] of 4.27 nM.

As to `Cc1nnc([C@H](C)c2ccc(F)cc2)c(NCCN2CCC2)n1` (single isomer, unassigned) [Example 133], the IC50 on SSTR1 is 30200 nM; at SSTR4 [2], 209 nM. Also, the EC50 at SSTR4 [1] was 42.7 nM.

As for `Cc1cccc(Cc2nc(C(=O)N(C)C)c(C)nc2NCCN2CCCC2)c1` [Example 39, N,N,3-trimethyl-6-(3-methylbenzyl)-5-((2-(pyrrolidin-1-yl)ethyl)amino)pyrazine-2-carboxamide], the IC50 at SSTR1 was 26900 nM; on SSTR4 [2], 41.7 nM. Moreover, the response on SSTR4 [1] was half-maximal at 4.27 nM (EC50).

For the compound `Cc1nc(NCCN2CCCC2)c(C(C)c2ccc(F)cc2)nc1C(=O)N[C@H]1C[C@@H](F)C1` (stereo partly drawn) [Example 64, N-(cis-3-fluorocyclobutyl)-6-(1-(4-fluorophenyl)ethyl)-3-methyl-5-((2-(pyrrolidin-1-yl)ethyl)amino)pyrazine-2-carboxamide], the IC50 on SSTR1 is 1260 nM; on SSTR4 [2] it was 33.9 nM. At SSTR4 [1], this compound gave an EC50 of 13.8 nM.

For `Cc1cnc(-c2cnc(NCCN3CCCC3)c(C(C)c3ccc(F)cc3)n2)o1` (stereo not drawn) [Example 126, 3-(1-(4-fluorophenyl)ethyl)-5-(5-methyloxazol-2-yl)-N-(2-(pyrrolidin-1-yl)ethyl)pyrazin-2-amine], the figures for the IC50 on SSTR1 and at SSTR4 [2] were 2630 nM and 110 nM, respectively. This compound showed an EC50 at SSTR4 [1] of 29.5 nM.

As to `Cc1nnc([C@H](C)c2ccc(F)cc2)c(N[C@@H]2CCN(C)C2)n1` (single isomer, unassigned) [Example 141], the IC50 was 25700 nM at SSTR1 and 93.3 nM on SSTR4 [2]. The compound further had a 50% effective concentration (EC50) at SSTR4 [1] of 21.4 nM.
